Earlier results on 3 compounds are cited in patent US20050065087A1, “Pharmaceutical compositions and methods comprising combinations of 2-alkylidene-19-nor-vitamin D derivatives and a bone morphogenetic protein” (Pfizer Inc., priority 2003, published 2005).

Data set [1] relates to male weanling rats on vitamin D-deficient diet. The conditions noted are these: for bone calcium mobilization (in words): chronic 7 days, 130 and 260 pmol/day.
The test system is the same in data set [2]. The conditions noted are these: chronic 7 days, 130 and/or 260 pmol/day as tested.
A further data set concerns HL-60 cells. The conditions noted are these: method of Ostrem et al.

Consider `C=C1/C(=C\C=C2/CCC[C@]3(C)[C@@H]([C@H](C)CCCC(C)(C)O)CC[C@@H]23)C[C@@H](O)C[C@@H]1O` [1,25-(OH)2D3, 1,25-dihydroxyvitamin D3, reference compound], for which the “serum calcium value (text sentence)” value in data set [1] ('twice the dose ... at the 130 pmol dose' as printed, 7 days) is reported as 13.8 mg/100 ml. The “intestinal calcium transport (in words)” value in data set [2] is reported as “expected elevation”.
Regarding `C=C1[C@H](O)CC(=C/C=C2\CCC[C@]3(C)[C@@H]([C@H](C)CCCC(C)(C)O)CC[C@@H]23)C[C@H]1O` [2-Methylene-19-Nor-1,25-(OH)2D3, 1α,25-dihydroxy-2-methylene-19-nor-vitamin D3], the “bone calcium mobilization (in words)” value in data set [1] is listed as “extremely strong bone calcium mobilization”. Also, in data set [2], the “intestinal calcium transport (in words)” value is on record as “no intestinal calcium transport activity”. In the data set on HL-60 cells, the “inducing differentiation of HL-60 cells to the monocyte (in words)” value is “activity similar to 1,25-(OH)2D3”.
For the compound `C=C1[C@H](O)CC(=C/C=C2\CCC[C@]3(C)[C@@H]([C@@H](C)CCCC(C)(C)O)CC[C@@H]23)C[C@H]1O` [2-Methylene-19-Nor-20S-1,25-(OH)2D3, (20S)-1α,25-dihydroxy-2-methylene-19-nor-vitamin D3], the “bone calcium mobilization activity relative to the native hormone, 'possible' upper estimate” value in data set [1] (130 pmol/day, chronic mode 7 days) was 100-1,000 times. The “bone calcium mobilization (in words)” value in data set [1] is “most potent compound tested”. In addition, the “bone calcium mobilization activity relative to 1,25-(OH)2D3 (native hormone)” value in data set [1] (chronic mode 7 days, estimate in the text) was “at least 10 times”. Moreover, in data set [2], the “intestinal calcium transport (in words)” value was “no significant change”. In addition, in the data set on HL-60 cells, the “inducing differentiation of HL-60 cells to the monocyte (in words)” value is reported as “extremely potent”.
